Test results as given in article PMC10644391, “Targeted Reversible Covalent Modification of a Noncatalytic Lysine of the Krev Interaction Trapped 1 Protein Enables Site-Directed Screening for Protein–Protein Interaction Inhibitors” (ACS Pharmacology & Translational Science, 2023).
Values joined by “and” are separate entries in the source; they are usually repeats but may differ in a detail not shown here. Equal entries are not always repeated. Where two headings read alike, the source gives them in different places.

How the values were obtained:
[1] = biological target: T1, HEG1-KRIT1 PPI (Homo sapiens, UniProt O00522); experiment: HEG1-KRIT1 PPI fluorescence polarization (FP) time-resolved assay; type: biochemical; details: for IC50: fluorescence polarization assay after 4 h of incubation; for IC50 / HEG1-KRIT1 PPI Assay kon / koff / Ki: means ± SD, n = 3; for HEG1-KRIT1 PPI Assay kon / koff: global fit across six or more inhibitor concentrations; for Ki: global fit, unit in Figure 2E, read-out: HEG1-KRIT1 PPI Assay Ki (koff/kon)
T1 construct: a recombinant FERM domain (residues 417–736) of KRIT1; made in house; host or cells: E. coli
Protocol: To evaluate the binding kinetics of HNA inhibitors, a fluorescence polarization (FP) time-resolved assay that uses a recombinant FERM domain (residues 417–736) of KRIT1 and a fluorescence-tagged HEG1 cytoplasmic tail (Cy5-HEG1 7-mer peptide) was developed (Supporting Information). Using HNA as a test compound, the FP data, expressed as millipolarization (mP) units, were obtained every 10 min over the course of 4–7 h. […] Thus, for practical purposes, a 4-h incubation time was established as the standard assay time for non-kinetic IC50 evaluations.
Fluorescence Polarization Assay and Optimization
The KRIT1 FERM domain (residues 417-736) was cloned into plasmid and recombinantly expressed in E. coli as previously described,1 while the Cy5-HEG1 7- mer peptide bearing the Cy5 dye as fluorescent probe was prepared by and purchased from GenScript (New Jersey, US). HEPES- buffered saline (HBS) buffer was supplemented (0.01%) with detergent Triton X -100 to minimize protein adsorption to the microplate. The assay was setup in a 96-well plate plated with 80 nM KRIT1, 4 nM Cy5- HEG1 probe, and either non-tagged HEG1 peptide or HNA as inhibitor (in 5% DMSO). To account for background fluorescence that could interfere with the assay, background wells with only test compound and Cy5 -HEG1 probe (no KRIT1) were also plated. The FP data, expressed as millipolarization (mP) units, were obtained […]
course of 4-7 hours (for kinetic characterization) using a Tecan Spark® Multimode Microplate Reader. The background mP (no KRIT1) was subtracted from mP to account for background fluorescence. All assays were done in triplicates.
Several FP assay conditions were optimized. First, the HEG1 probe engagement of KRIT1 was examined and its interaction was determined to be rapid equilibrium, thus any observed time dependance in response when an inhibitor displaces the probe is the result of inhibitor exchange kinetics and not that of the probe. Next, the affinity of KRIT1 for the probe (Kd) was examined by following the change in polarization signal as a function of a matrix of five probe concentrations and four KRIT1 concentrations (Figure S1B ). A global fit of equation 3 to polarization responses of the inhibitor vs KRIT1 concentration […]
even after 7 hours of incubation. For practical purposes, we have chosen 4 hours as our standard incubation time since it appeared that most of the inhibition has been reached at this time point. The kinetic characterization of HNA as a HEG1- KRIT1 inhibitor will be discussed in greater detail in the kinetic section […]
values to those obtained from the flow cytometry assay. Finally, to assess the robustness of the FP assay, […]
a robust assay) representing an excellent assay with clear differences between positive and negative controls.2 Evaluation of HEG1-KRIT1 inhibitors prior to the optimization of the FP assay were done using flow cytometry, while subsequent compounds were evaluated using the FP assay. All subsequent assay plates included HNA as comparison and control.
Figure S1. Optimization of fluorescence polarization (FP) assay.
HEG1-KRIT1 inhibition. (B) Optimization of KRIT1 protein and Cy5 -HEG1 probe concentrations. Dose-response curve of HNA obtained via fluorescence polarization (C) and flow cytometry (D) assays show […]
All assays were tested in technical duplicates or triplicates in at least 2 different

[2] = pKa by potentiometric titration (Sirius T3); type: physicochemical; details: potentiometric titrations, means ± SD of three titrations
[3] = HEK293 cytotoxicity, resazurin cell viability assay; type: cell-based; details: human, HEK293 cells, means ± SD, n = 3
Protocol: Maintenance of HEK293 Cells. HEK293 cell lines (American Type Culture Collection (ATCC)) were cultured in Dulbecco's Modified Eagle Medium (DMEM, Invitrogen) supplemented with 10% heat-inactivated fetal bovine serum (FBS, Gibco) and penicillin-streptomycin (1%). Cells were kept at 37 °C and 5% CO2, and were passaged every 72 hours.
Resazurin Cell Viability Assay. The cytotoxicity in HEK293 cells were determined using a resazurin cell viability assay. Test compounds in DMSO were diluted to 100x desired final assay concentration (maximum concentration of 100 µM) in eight-point dose response. 1 µL of test compounds were plated in a 96-well clear bottom tissue culture microplate. 49 µL of cell culture media was added to each well. Cells were diluted to 4 x 10^5 cells/mL, and 50 µL of this cell suspension was seeded to each well for a total of 2 x 10^4 cells/well. The assay plate was kept at 37 °C and 5% CO 2 for either 4 or 48 hours. At the end of the incubation time, 20 µL of 0.5 mM resazurin sodium salt (Alfa Aesar) solution in PBS was added to each well. The assay plates were incubated further at 37 °C for 2 hours. Fluorescence was measured at 531 nm and 595 nm excitation and emission wavelengths, respectively, using a 2104 EnVision® multilabel plate reader. CC50 values were obtained using sigmoidal curved generated with Prism GraphPad (San Diego, CA). SD values are reported as the standard deviation of the CC50 values of 3 biological replicates. All

[4] = system: KLF2; experiment: KLF2 gene expression in HUVECs (RT-qPCR); type: cell-based, Human; details: HUVEC, 4-h incubation, relative to inactive control (2-hydroxy-1-naphthoic acid), 10-50 µM
Protocol: (§1) Finally, to confirm target engagement in cell-based conditions, selected HNA derivatives (i.e., 2, 3, and 5) were tested in a functional assay that specifically looks at the downstream effects of inhibiting the interaction between HEG1 and KRIT1, using qPCR. […] Here, the ability of compound 2 and HNA derivatives 3 and 5 to upregulate the same transcription factors in HUVEC after 4 h was measured.
(§2) PCR experiments in endothelial cells
(§3) Cell Culture. Human umbilical vein endothelial cells (HUVECs, Lonza) from passages 5 to 7 were grown on fibronectin‐coated 6-well plates (Corning) in complete EGM‐2 media (Lonza). HNA compounds 2, 3 and 5 were used from stocks of 10 mM in DMSO, which were placed on a rotating block at room temperature for 30 min before being diluted for use in cell culture. Compounds were used at the concentrations indicated (10-50µM) in HUVEC medium and added to cell culture wells for 4 hours. Control cells were treated with the same concentration of either DMSO (vehicle) or the non-active compound V for the same duration. Cells were maintained in a humidified incubator at 37°C and 5% CO2.
(§4) RT-qPCR. HUVECs (Lonza) using TRIzol reagent (Thermo Fisher Scientific) and the Quick-RNA MiniPrep Kit (Zymo Research) according to the manufacturer’s instructions. cDNA was transcribed from a total of 1 µg RNA per sample using qScript™ cDNA SuperMix (QuantaBio) according to the manufacturer’s protocol. KAPA SYBR FAST qPCR master mix (Roche) was used on a CFX Connect Real-Time PCR Detection System (BioRad) to determine the relative levels of human gene trascripts. The following primer sets were used: KLF2 (forward) AGACCACGATCCTCCTTGA and (reverse) […]
(§5) […]; KLF4, (forward) […] and (reverse)
(§6) ; and GAPDH (forward) […] and
(§7) (reverse) […] used as internal control. The 2−ΔΔCT method was used to analyze relative changes between vehicle control and test compounds for each data set.

[5] = system: KLF4; experiment: KLF4 gene expression in HUVECs (RT-qPCR); type: cell-based, Human; details: HUVEC, 4-h incubation, relative to inactive control (2-hydroxy-1-naphthoic acid), 10-50 µM
Protocol: as §1, §2, §3, §4, §5, §6, §7

[6] = system: KLF2; set-up: method as in PMID 33977234; details: HUVECs, 24 h of incubation; cited from earlier work
[7] = system: KLF4; set-up: method as in PMID 33977234; details: HUVECs, 24 h of incubation; cited from earlier work
[8] = system: HEG1-KRIT1 PPI; details: cited from earlier work

T1 sequence (O00522 417-736): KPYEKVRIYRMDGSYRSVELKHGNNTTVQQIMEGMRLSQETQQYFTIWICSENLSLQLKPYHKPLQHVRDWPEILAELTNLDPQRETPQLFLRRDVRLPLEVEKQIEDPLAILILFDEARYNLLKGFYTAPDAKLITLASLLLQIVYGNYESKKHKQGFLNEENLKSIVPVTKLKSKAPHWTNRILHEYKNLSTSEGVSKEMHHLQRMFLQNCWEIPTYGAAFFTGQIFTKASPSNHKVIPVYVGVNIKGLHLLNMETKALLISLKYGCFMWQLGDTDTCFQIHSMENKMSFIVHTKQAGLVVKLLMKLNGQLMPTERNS

SMILES: COc1ccc2c(C=O)c(O)ccc2c1 [Compound 2, 2-hydroxy-6-methoxy-1-naphthaldehyde]
- IC50 [1]: 3.96 ± 0.84 µM
- HEG1-KRIT1 PPI Assay kon [1]: 14 M⁻¹ s⁻¹ and 14 ± 0.83 M⁻¹ s⁻¹
- koff [1]: 1.54e-05 s⁻¹
- Ki [1]: 1.1 ± 0.32 µM
- pKa [2]: 7.42 ± 0.03
- CC50 at 48 h [3]: > 100 µM
- KLF2 mRNA expression [4]: increased KLF2 and KLF4 expression without reaching statistical significance
- KLF4 mRNA expression [5]: increased KLF2 and KLF4 expression without reaching statistical significance
- KLF2 expression [6]: upregulation
- KLF4 expression [7]: upregulation

SMILES: O=Cc1c(O)ccc2ccccc12 [Compound 1, 2-hydroxy-1-naphthaldehyde]
- difference in affinity, KRIT1 (FP assay) vs N-α-acetyl lysine ([1]; Ki for KRIT1 vs Kd for N-α-acetyl lysine): > 70,000 fold
- IC50 [1]: 8.14 ± 0.82 µM
- inhibition of HEG1-KRIT1 PPI upon co-incubation with free lysine ([1]; free lysine 50 μM in the assay buffer): did not meaningfully change
- HEG1-KRIT1 PPI Assay kon [1]: 14.4 ± 0.583 M⁻¹ s⁻¹
- koff [1]: 3.31e-05 s⁻¹
- HEG1-KRIT1 PPI Assay kon ([1]; listed as HNA): 14.4 M⁻¹ s⁻¹
- Ki [1]: 2.29 ± 0.44 µM
- pKa [2]: 7.34 ± 0.02
- CC50 at 48 h [3]: ~100 µM
- IC50 ([8]; previously reported data, read-out: HEG1-KRIT1 IC50, flow cytometry assay): 3.09 µM
- KLF2 expression [6]: upregulation
- KLF4 expression [7]: upregulation

SMILES: O=Cc1ccccc1O [salicylaldehyde, reference compound]
- IC50 ([8]; prior SAR studies, read-out: HEG1-KRIT1 PPI inhibition IC50): > 500 µM

SMILES: C#Cc1ccc2c(C=O)c(O)ccc2c1 [Compound 3]
- IC50 [1]: 0.65 ± 0.12 µM
- HEG1-KRIT1 PPI Assay kon [1]: 179 ± 26.1 M⁻¹ s⁻¹
- koff [1]: 0.000118 s⁻¹
- Ki [1]: 0.66 ± 0.17 µM
- pKa [2]: 6.81 ± 0.05
- CC50 at 48 h [3]: > 100 µM
- KLF2 mRNA expression [4]: significant elevations
- KLF4 mRNA expression [5]: significant elevations

SMILES: O=Cc1c(O)ccc2cc(-c3ccco3)ccc12 [Compound 5]
- IC50 [1]: 0.69 ± 0.11 µM
- HEG1-KRIT1 PPI Assay kon [1]: 108 ± 20.8 M⁻¹ s⁻¹
- koff [1]: 8.81e-05 s⁻¹
- Ki [1]: 0.82 ± 0.25 µM
- pKa [2]: 8.08 ± 0.08
- CC50 at 48 h [3]: 37.1 ± 5.2 µM
- KLF2 mRNA expression [4]: significant elevations
- KLF4 mRNA expression [5]: significant elevations
